Test results published in article PMC6342991, “Effects of point mutations in the binding pocket of the mouse major urinary protein MUP20 on ligand affinity and specificity” (Scientific Reports, 2019).
Changes are numbered by the printed parent chain. Several values for one entry are separate records, joined by “and”; a condition that tells them apart may be missing. Equal entries are not always repeated. Entries after “also recorded” stand apart in the source; their conditions may differ. Where two headings read alike, the source gives them in different places.

How the values were obtained:
[1] = target: T1, wild type MUP20 (Mus musculus, UniProt Q5FW60); assay: Fluorescence competitive binding assay with 1-NPN, wild type MUP20; conditions: 1-NPN displacement, 50 mM Tris-HCl pH 7.4, 25 °C
T1 construct: 6xHis (N); made in house; host or cells: E. coli BL21(DE3), pET5b
T1 sequence (Q5FW60 20-181): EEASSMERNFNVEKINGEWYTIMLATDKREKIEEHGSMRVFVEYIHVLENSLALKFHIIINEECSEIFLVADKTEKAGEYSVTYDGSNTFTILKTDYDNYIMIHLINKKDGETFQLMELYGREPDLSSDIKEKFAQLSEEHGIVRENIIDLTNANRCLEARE
Experimental: (§1) Fluorescence competitive binding assays: Fluorescence-competitive binding assays were carried out using the fluorescent probe N-phenyl-1-naphthylamine (1-NPN), as described[39],[40]. A binding curve was constructed and the dissociation constant of the probe (KD) was calculated.
(§2) The binding analyses assumed that the protein had 100% activity and that the stoichiometry of binding was 1:1 at saturation. The affinity of various volatile ligands was measured in competitive binding assays.
(§3) The change in fluorescence was recorded after adding increasing concentrations of ligand. Competitor concentrations causing a decay of fluorescence to half-maximal intensity were determined as IC50 and the dissociation constant for the test ligands (expressed as Kd) was calculated using the following formula:1 Kd=[IC50]/1+[Probe]/KD where [Probe] is the free concentration of the fluorescent probe and KD is the dissociation constant of the complex Protein/Probe.

[2] = target: T2, MUP20V59T (Mus musculus, UniProt Q5FW60, V59T); assay: Fluorescence competitive binding assay with 1-NPN, MUP20 V59T
T2 construct: 6xHis (N); made in house; host or cells: E. coli BL21(DE3), pET5b
T2 sequence (Q5FW60 20-181 V59T): T1 sequence (Q5FW60 20-181) with V40T
Experimental: as §1, §2, §3

[3] = target: T3, MUP20L88Q (Mus musculus, UniProt Q5FW60, L88Q); assay: Fluorescence competitive binding assay with 1-NPN, MUP20 L88Q; conditions: 1-NPN displacement, 50 mM Tris-HCl pH 7.4, 25 °C
T3 construct: 6xHis (N); made in house; host or cells: E. coli BL21(DE3), pET5b
T3 sequence (Q5FW60 20-181 L88Q): T1 sequence (Q5FW60 20-181) with L69Q
Experimental: as §1
The affinity of various volatile ligands was measured in competitive binding assays.
as §3

[4] = target: T4, MUP20Y103D (Mus musculus, UniProt Q5FW60, Y103D); assay: Fluorescence competitive binding assay with 1-NPN, MUP20 Y103D
T4 construct: 6xHis (N); made in house; host or cells: E. coli BL21(DE3), pET5b
T4 sequence (Q5FW60 20-181 Y103D): T1 sequence (Q5FW60 20-181) with Y84D
Experimental: as §1, §2, §3

[5] = target: T5, MUP20Y103R (Mus musculus, UniProt Q5FW60, Y103R); assay: Fluorescence competitive binding assay with 1-NPN, MUP20 Y103R
T5 construct: 6xHis (N); made in house; host or cells: E. coli BL21(DE3), pET5b
T5 sequence (Q5FW60 20-181 Y103R): T1 sequence (Q5FW60 20-181) with Y84R
Experimental: as §1, §2, §3

[6] = target: T6, MUP20N107L (Mus musculus, UniProt Q5FW60, N107L); assay: Fluorescence competitive binding assay with 1-NPN, MUP20 N107L
T6 construct: 6xHis (N); made in house; host or cells: E. coli BL21(DE3), pET5b
T6 sequence (Q5FW60 20-181 N107L): T1 sequence (Q5FW60 20-181) with N88L
Experimental: as §1, §2, §3

[7] = target: T7, MUP20L124V (Mus musculus, UniProt Q5FW60, L124V); assay: Fluorescence competitive binding assay with 1-NPN, MUP20 L124V
T7 construct: 6xHis (N); made in house; host or cells: E. coli BL21(DE3), pET5b
T7 sequence (Q5FW60 20-181 L124V): T1 sequence (Q5FW60 20-181) with L105V
Experimental: as §1, §2, §3

[8] = target: T8, MUP20E137K (Mus musculus, UniProt Q5FW60, E137K); assay: Fluorescence competitive binding assay with 1-NPN, MUP20 E137K
T8 construct: 6xHis (N); made in house; host or cells: E. coli BL21(DE3), pET5b
T8 sequence (Q5FW60 20-181 E137K): T1 sequence (Q5FW60 20-181) with E118K
Experimental: as §1, §2, §3

[9] = target: T1, wild type MUP20; assay: Isothermal titration calorimetry, wild type MUP20; type: binding; conditions: for Kd: one-site binding model, 25 °C, 50 mM Tris HCl pH 7.4, read-out: Equilibrium dissociation constant Kd (ITC), WT
Experimental: (§4) ITC titrations were performed at 25 ± 0.1 °C in 50 mM Tris HCl pH 7.4, using a MicroCal VP-ITC instrument. To a MUP solution (1.7 ml, 25 µM) were sequentially added 25 aliquots (10 μl each) of a ligand stock solution (500 μM), with a delay of 4 min after each injection with continuous stirring of the solution (at 307 r.p.m.) in the sample cell. Before analysis, protein samples were dialyzed overnight in the same buffer, using a Slide-A-Lyzer (3.5-kDa cutoff) from ThermoFisher Scientific (Waltham, MA, USA), and thoroughly degassed. The heat of dilution was determined in control experiments by injecting aliquots (10 µl) of a ligand stock solution (500 µM) into buffer and this was subtracted from the integrated binding isotherm prior to curve fitting. Each injection generated a heat-burst curve (μcal s^−1) versus time (min). The area under each peak was determined by integration using Origin 7.5 software (Microcal, Inc.) to give the heat associated with the injection. The heat exchanged per mole of injectant was plotted against the ligand:protein molar ratio. The binding constants (Ka) and stoichiometry (N) parameters of the binding process were obtained by fitting the integrated heats of binding to the one-site binding model using the MicroCal ITC Data Analysis software.

[10] = target: T9, MUP20 mutant L88Q (Mus musculus, UniProt Q5FW60, L88Q); assay: Isothermal titration calorimetry, MUP20 L88Q; type: binding; conditions: for Kd: one-site binding model, 25 °C, 50 mM Tris HCl pH 7.4, read-out: Equilibrium dissociation constant Kd (ITC), L88Q
T9 construct: 6xHis (N); made in house; host or cells: E. coli BL21(DE3), pET5b
T9 sequence (Q5FW60 20-181 L88Q): T1 sequence (Q5FW60 20-181) with L69Q
Experimental: as §4

[11] = target: T10, MUP20 mutant L124V (Mus musculus, UniProt Q5FW60, L124V); assay: Isothermal titration calorimetry, MUP20 L124V; type: binding; conditions: for Drop of affinity of L124V compared to wild-type MUP20 (ITC): decrease in affinity; for Kd: one-site binding model, 25 °C, 50 mM Tris HCl pH 7.4, read-out: Equilibrium dissociation constant Kd (ITC), L124V
T10 construct: 6xHis (N); made in house; host or cells: E. coli BL21(DE3), pET5b
T10 sequence (Q5FW60 20-181 L124V): T1 sequence (Q5FW60 20-181) with L105V
Experimental: as §4

[12] = target: T11, MUP20 mutant Y103R (Mus musculus, UniProt Q5FW60, Y103R); assay: Isothermal titration calorimetry, MUP20 Y103R; type: binding; conditions: 25 °C, 50 mM Tris HCl pH 7.4
T11 construct: 6xHis (N); made in house; host or cells: E. coli BL21(DE3), pET5b
T11 sequence (Q5FW60 20-181 Y103R): T1 sequence (Q5FW60 20-181) with Y84R
Experimental: as §4

[13] = target: T1, wild type MUP20; design: method as in Scorsone et al., IEEE Sensors Journal 2016, 16, 6543, Tab. 1; conditions: ref Scorsone et al., IEEE Sensors Journal 2016, 16, 6543, Tab. 1; read-out: Kd, WT (starred value); cited from earlier work
[14] = target: T3, MUP20L88Q; design: method as in Scorsone et al., IEEE Sensors Journal 2016, 16, 6543, Tab. 1; conditions: ref Scorsone et al., IEEE Sensors Journal 2016, 16, 6543, Tab. 1; read-out: Kd, L88Q (starred value); cited from earlier work
[15] = target: T4, MUP20Y103D; design: method as in Scorsone et al., IEEE Sensors Journal 2016, 16, 6543, Tab. 1; conditions: ref Scorsone et al., IEEE Sensors Journal 2016, 16, 6543, Tab. 1; read-out: Kd, Y103D (starred value); cited from earlier work
[16] = target: T7, MUP20L124V; design: method as in Scorsone et al., IEEE Sensors Journal 2016, 16, 6543, Tab. 1; conditions: ref Scorsone et al., IEEE Sensors Journal 2016, 16, 6543, Tab. 1; read-out: Kd, L124V (starred value); cited from earlier work
[17] = 1-NPN displacement, 50 mM Tris-HCl pH 7.4, 25 °C, read-out: Measured Kd, V59T
[18] = 1-NPN displacement, 50 mM Tris-HCl pH 7.4, 25 °C, read-out: Measured Kd, Y103D
[19] = 1-NPN displacement, 50 mM Tris-HCl pH 7.4, 25 °C, read-out: Measured Kd, Y103R
[20] = 1-NPN displacement, 50 mM Tris-HCl pH 7.4, 25 °C, read-out: Measured Kd, N107L
[21] = 1-NPN displacement, 50 mM Tris-HCl pH 7.4, 25 °C, read-out: Measured Kd, L124V
[22] = 1-NPN displacement, 50 mM Tris-HCl pH 7.4, 25 °C, read-out: Measured Kd, E137K

SMILES | Kd ([1]; read-out: Measured Kd, WT) | Kd [2, 17] [µM] | Kd ([3]; read-out: Measured Kd, L88Q) | Kd [4, 18] [µM] | Kd [5, 19] [µM] | Kd [6, 20] [µM] | Kd [7, 21] [µM] | Kd [8, 22] [µM] | Kd [9] [µM] | Kd [10] [µM] | Drop of affinity of L124V compared to wild-type MUP20 (ITC) [11] [fold] | Kd [11] [µM] | Binding strength to Y103R mutant (ITC) [12] | further results
Cc1ccc(O)c(C)c1 [2,4-DMP, 2,4-dimethylphenol] | – | – | – | – | – | – | – | – | – | – | – | – | – | Kd ([1]; Measured Kd, WT): 4.24 µM; Kd [2]: 1.44 µM; Kd ([3]; Measured Kd, L88Q): 5.08 µM; Kd [4]: 4.68 µM; Kd [5]: 11.9 µM; Kd [6]: 1.99 µM; Kd [7]: 1.3 µM; Kd [8]: 4.05 µM
C=CC(C)(O)CCC=C(C)C (stereo not drawn) [LIN, 3,7-dimethylocta-1,6-dien-3-ol] | 2.82 µM | 1.6 | 2.21 µM | 2.17 | 5.93 | 1.37 | 0.29 | 1.85 | – | – | – | – | – | –
CC1=CC(=O)c2ccccc2C1=O [MEN, methylnapthalene-1,4-dione] | – | 1.85 | – | – | – | 1.23 | – | 2.14 | 76 ± 19 | 13 ± 6 | 25 | 1900 ± 100 | barely detectable | Kd [13]: 0.61 µM; Kd [14]: 1.31 µM; Kd [15]: 0.82 µM; Kd [16]: 0.07 µM
CCCCCCC(CO)CCCC (stereo not drawn) [OCT, 2-butyl-1-octanol] | 0.78 µM | 1.54 | 1.45 µM | 0.92 | 1.88 | 2.67 | 0.36 | 3.2 | – | – | – | – | – | –
COc1nccnc1CC(C)C [PYR, 2-isobutyl-3-methoxypyrazine] | 1.29 µM and 1.3 µM | 1.93 | 1.39 µM and 1.4 µM | 0.84 | 0.74 | 1.4 | 0.07 | 1.52 | 1.6 | 2.4 | 1300 | 2100 ± 200 | barely detectable | Affinity for wild type MUP20 relative to MEN (ITC) ([9]; higher affinity than MEN): > 40 fold; Change of affinity of L88Q compared to wild-type MUP20 (ITC) ([10]; number = increase in affinity): did not appreciably affect; also recorded: does not alter
